From patent US12612622B2, “Targeted mutagenesis using base editors” (Qi Biodesign Biotechnology Company Limited, priority 2018, dated 2026)

Tested on: OsACCase gene
Experiment: Base editing (pZRH-PBE + individual sgRNAs) of OsACCase functional domain in transgenic M0 rice plants
Assay type: in vivo
Details: for Frequency of indel (%) / Frequency of substitution (%) / No. of WT / No. of indel / No. of substitution: transgenic M0 plants; for No. of WT / No. of indel / No. of substitution: per sgRNA target
Excerpt: For individual cloning, the following method is used. APOBEC1, partial nCas9 and UGI sequences (SEQ ID NO: 129) without BsaI were synthesized commercially (GenScript, Nanjing, China) and cloned into the pUC57 (SEQ ID NO: 130) as intermediate vector. […] The full length APOBEC1-nCas9-UGI was excised using XmaJI and SacI, then was subcloned into pHUE411 that had been digested using the same two enzymes. The resultant vector pZRH-PBE (SEQ ID NO: 133) was used to construct sgRNA expression plasmids using restriction enzyme site BsaI.

[1] = edited allele with the substitution of the same table line

Substance: R7: sgRNA in pZRH-PBE; OsACCase target site CCCTGCTGACCCTGGTCAGCTTG (SEQ ID NO: 27) (expressed or natural sequence; target site or template, no part of the molecule)
- No. of alleles [1]: 1
- Frequency of indel (%): 5.9%
- Frequency of substitution (%): 58.8%
- No. of WT: 6
- No. of indel: 1
- No. of substitution: 10
- No. of alleles (unedited target site sequence): 4

Substance: R26: sgRNA in pZRH-PBE; OsACCase target site AACAACACCGTTGGACCCACCGG (SEQ ID NO: 88) (expressed or natural sequence; target site or template, no part of the molecule)
- No. of alleles [1]: 4
- Frequency of indel (%): 0.0%
- Frequency of substitution (%): 71.4%
- No. of WT: 2
- No. of indel: 0
- No. of substitution: 5
- No. of alleles (unedited target site sequence): 4

Substance: R33: sgRNA in pZRH-PBE; OsACCase target site CCTTTGTCTACATTCCCATGGCT (SEQ ID NO: 107) (expressed or natural sequence; target site or template, no part of the molecule)
- No. of alleles [1]: 1
- Frequency of indel (%): 5.9%
- Frequency of substitution (%): 41.2%
- No. of WT: 9
- No. of indel: 1
- No. of substitution: 7
- No. of alleles (unedited target site sequence): 1

Substance: R30: sgRNA in pZRH-PBE; OsACCase target site ATGGCTGCAGAGCTACGAGGAGG (SEQ ID NO: 99) (expressed or natural sequence; target site or template, no part of the molecule)
- Frequency of indel (%): 12.5%
- Frequency of substitution (%): 56.3%
- No. of WT: 5
- No. of indel: 2
- No. of substitution: 9
- No. of alleles (unedited target site sequence): 5

Substance: R38: sgRNA in pZRH-PBE; OsACCase target site CCTGTTGCATACATTCCTGAGAA (SEQ ID NO: 122) (expressed or natural sequence; target site or template, no part of the molecule)
- Frequency of indel (%): 28.6%
- Frequency of substitution (%): 35.7%
- No. of WT: 5
- No. of indel: 4
- No. of substitution: 5
- No. of alleles (unedited target site sequence): 4

Substance: R6: sgRNA in pZRH-PBE; OsACCase target site CCATCTTACTGTTTCAGATGACC (SEQ ID NO: 22) (expressed or natural sequence; target site or template, no part of the molecule)
- Frequency of indel (%): 14.3%
- Frequency of substitution (%): 19%
- No. of WT: 14
- No. of indel: 3
- No. of substitution: 4
- No. of alleles (unedited target site sequence): 2

Substance: R20: sgRNA in pZRH-PBE; OsACCase target site TTTACACTTACATTTGTGACTGG (SEQ ID NO: 73) (expressed or natural sequence; the letters are possibly those of the target site)
- No. of alleles [1]: 1
- Frequency of indel (%): 0.0%
- Frequency of substitution (%): 16.7%
- No. of WT: 11
- No. of indel: 0
- No. of substitution: 2
- No. of alleles (unedited target site sequence): 2

Substance: R32: sgRNA in pZRH-PBE; OsACCase target site CCCAGACCGCATTGAGTGCTATG (SEQ ID NO: 104) (expressed or natural sequence; target site or template, no part of the molecule)
- No. of alleles [1]: 1
- Frequency of indel (%): 10.5%
- Frequency of substitution (%): 21.1%
- No. of WT: 13
- No. of indel: 2
- No. of substitution: 4
- No. of alleles (unedited target site sequence): 2

Substance: R27: sgRNA in pZRH-PBE; OsACCase target site GAACTCGTGTGATCCTCGAGCGG (SEQ ID NO: 90) (chemistry not fully specified; the letters are possibly those of the target site)
- No. of alleles [1]: 3
- Frequency of indel (%): 0.0%
- Frequency of substitution (%): 15.4%
- No. of WT: 11
- No. of indel: 0
- No. of substitution: 2
- No. of alleles (unedited target site sequence): 1

Substance: R4: sgRNA in pZRH-PBE; OsACCase target site TCTGCACTGAACAAGCTTCTTGG (SEQ ID NO: 11) (expressed or natural sequence; target site or template, no part of the molecule)
- Frequency of indel (%): 3.1%
- Frequency of substitution (%): 31.3%
- No. of WT: 24
- No. of indel: 2
- No. of substitution: 6
- No. of alleles (unedited target site sequence): 6

Substance: R39: sgRNA in pZRH-PBE; OsACCase target site CCGTTGGACCCACCGGACAGACC (SEQ ID NO: 125) (expressed or natural sequence; target site or template, no part of the molecule)
- No. of alleles [1]: 1
- Frequency of indel (%): 50.0%
- Frequency of substitution (%): 25.0%
- No. of WT: 1
- No. of indel: 2
- No. of substitution: 1
- No. of alleles (unedited target site sequence): 1

Substance: R8: sgRNA in pZRH-PBE; OsACCase target site TTCCTCGTGCTGGACAAGTGTGG (SEQ ID NO: 32) (expressed or natural sequence; target site or template, no part of the molecule)
- Frequency of indel (%): 10.5%
- Frequency of substitution (%): 59.6%
- No. of WT: 17
- No. of indel: 6
- No. of substitution: 34
- No. of alleles (unedited target site sequence): 9

Substance: R25: sgRNA in pZRH-PBE; OsACCase target site ACTTCCAGTAACAACACCGTTGG (SEQ ID NO: 85) (expressed or natural sequence; the letters are possibly those of the target site)
- No. of alleles (edited allele with the substitution of the same table line, edited allele (SEQ ID NO: 86)): 2
- No. of alleles (edited allele with the substitution of the same table line, edited allele (SEQ ID NO: 87)): 1
- Frequency of indel (%): 0.0%
- Frequency of substitution (%): 40.0%
- No. of WT: 3
- No. of indel: 0
- No. of substitution: 2
- No. of alleles (unedited target site sequence): 1

Substance: R21: sgRNA in pZRH-PBE; OsACCase target site AGCTCCCACATGCAGTTGGGTGG (SEQ ID NO: 76) (expressed or natural sequence; target site or template, no part of the molecule)
- No. of alleles (edited allele with the substitution of the same table line, edited allele (SEQ ID NO: 77)): 2
- No. of alleles (edited allele with the substitution of the same table line, edited allele (SEQ ID NO: 78)): 4
- Frequency of indel (%): 9.5%
- Frequency of substitution (%): 23.8%
- No. of WT: 14
- No. of indel: 2
- No. of substitution: 5
- No. of alleles (unedited target site sequence): 4

Substance: R36: sgRNA in pZRH-PBE; OsACCase target site CCTCGAGCGGCTATCCGTGGTGT (SEQ ID NO: 115) (expressed or natural sequence; the letters are possibly those of the target site)
- No. of alleles [1]: 1
- Frequency of indel (%): 0.0%
- Frequency of substitution (%): 35.7%
- No. of WT: 9
- No. of indel: 0
- No. of substitution: 5
- No. of alleles (unedited target site sequence): 3

Substance: R34: sgRNA in pZRH-PBE; OsACCase target site CCAGTGGGTGTGATAGCTGTGGA (SEQ ID NO: 109) (expressed or natural sequence; the letters are possibly those of the target site)
- No. of alleles (edited allele with the substitution of the same table line, edited allele (SEQ ID NO: 110)): 3
- No. of alleles (edited allele with the substitution of the same table line, edited allele (SEQ ID NO: 111)): 2
- No. of alleles (edited allele with the substitution of the same table line, edited allele (SEQ ID NO: 112)): 4
- Frequency of indel (%): 0.0%
- Frequency of substitution (%): 71.4%
- No. of WT: 4
- No. of indel: 0
- No. of substitution: 10
- No. of alleles (unedited target site sequence): 7

Substance: R28: sgRNA in pZRH-PBE; OsACCase target site GTTACTGGCAGAGCAAAGCTTGG (SEQ ID NO: 92) (expressed or natural sequence; target site or template, no part of the molecule)
- No. of alleles [1]: 6
- Frequency of indel (%): 14.3%
- Frequency of substitution (%): 42.9%
- No. of WT: 3
- No. of indel: 1
- No. of substitution: 3
- No. of alleles (unedited target site sequence): 0

Substance: R24: sgRNA in pZRH-PBE; OsACCase target site TATGTTCCTGCCTACATTGGTGG (SEQ ID NO: 83) (expressed or natural sequence; target site or template, no part of the molecule)
- No. of alleles [1]: 2
- Frequency of indel (%): 14.3%
- Frequency of substitution (%): 9.5%
- No. of WT: 16
- No. of indel: 3
- No. of substitution: 2
- No. of alleles (unedited target site sequence): 2

Substance: R18: sgRNA in pZRH-PBE; OsACCase target site CCGCAAGGGTTAATTGAGATCAA (SEQ ID NO: 68) (expressed or natural sequence; target site or template, no part of the molecule)
- Frequency of indel (%): 13.0%
- Frequency of substitution (%): 60.9%
- No. of WT: 6
- No. of indel: 3
- No. of substitution: 14
- No. of alleles (unedited target site sequence): 7

Substance: R29: sgRNA in pZRH-PBE; OsACCase target site CAAACTATCCCTGCTGACCCTGG (SEQ ID NO: 94) (expressed or natural sequence; target site or template, no part of the molecule)
- Frequency of indel (%): 12.0%
- Frequency of substitution (%): 60.0%
- No. of WT: 7
- No. of indel: 3
- No. of substitution: 15
- No. of alleles (unedited target site sequence): 8
